US20120040991A1, “3-AZABICYCLO [4.1.0] HEPTANES USED AS OREXIN ANTAGONISTS” (Glaxo Group Limited, priority 2009, published 2012)

Biological target: T1, human cloned orexin-2 receptor (Homo sapiens, UniProt O43614)
T1 construct: expressed in transfected cells
T1 sequence (O43614 1-444): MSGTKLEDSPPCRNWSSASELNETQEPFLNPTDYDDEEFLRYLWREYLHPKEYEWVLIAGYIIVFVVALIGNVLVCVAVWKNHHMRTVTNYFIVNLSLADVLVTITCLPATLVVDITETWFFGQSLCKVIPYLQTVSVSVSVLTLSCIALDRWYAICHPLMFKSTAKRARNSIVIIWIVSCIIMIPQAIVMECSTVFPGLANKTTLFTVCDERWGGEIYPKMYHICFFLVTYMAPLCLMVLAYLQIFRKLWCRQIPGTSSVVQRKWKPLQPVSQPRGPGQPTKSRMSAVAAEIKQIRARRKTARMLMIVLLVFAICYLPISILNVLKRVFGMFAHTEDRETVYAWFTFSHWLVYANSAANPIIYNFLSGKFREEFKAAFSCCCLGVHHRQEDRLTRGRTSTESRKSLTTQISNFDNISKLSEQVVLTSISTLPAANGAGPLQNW
Experiment: Determination of antagonist affinity at human Orexin-2 receptor using FLIPR ([Ca2+]i, CHO cells, hOrexin A at EC80)
Type: cell-based
Conditions: functional pKi from IC50 by modified Cheng-Prusoff, read-out: fpKi
Excerpt: Determination of Antagonist Affinity at Human Orexin-1 and 2 Receptors Using FLIPR
Adherent Chinese Hamster Ovary (CHO) cells, stably expressing the recombinant human Orexin-1 or human Orexin-2 receptors or Rat Basophilic Leukaemia Cells (RBL) stably expressing recombinant rat Orexin-1 or rat Orexin-2 receptors were maintained in culture in Alpha Minimum Essential Medium (Gibco/Invitrogen, cat. no.; 22571-020), supplemented with 10% decomplemented foetal bovine serum (Life Technologies, cat. no. 10106-078) and 400 μg/mL Geneticin G418 (Calbiochem, cat. no. 345810). Cells were grown as monolayers under 95%:5% air:CO2 at 37° C. […]
Compounds of the invention were tested in a final assay concentration range from 1.66×10^−5M to 1.58×10^−11M. […] This final concentration of hOrexin A was equivalent to the calculated EC80 for hOrexinA agonist potency in this test system. […]
The loaded cells were then incubated for 10 min at 37° C. with test compound. The plates were then placed into a FLIPR™ (Molecular Devices, UK) to monitor cell fluorescence (λex=488 nm, λEM=540 nm) (Sullivan E, Tucker E M, Dale I L. Measurement of [Ca^2]i using the fluometric imaging plate reader (FLIPR). In: Lambert DG (ed.), Calcium Signaling Protocols. New Jersey: Humana Press, 1999, 125-136). A baseline fluorescence reading was taken over a 5 to 10 second period, and then 10 μL of EC80 hOrexinA solution was added. […]

Ki: > 15.8 µM
Structure (SMILES): CCOc1ccc(C)nc1C(=O)N1C[C@@H]2C[C@@H]2C[C@H]1COc1ncc(C(F)(F)F)cn1 [Example E4, (1R,4S,6R)-3-{[3-(ethyloxy)-6-methyl-2-pyridinyl]carbonyl}-4-({[5-(trifluoromethyl)-2-pyrimidinyl]oxy}methyl)-3-azabicyclo[4.1.0]heptane]
